Tests used:
Format in all cases: cell-based
[1] = system: LCC6-MDR drug resistant (Pgp+) human breast cancer cell line; experiment: Cytotoxicity of third-generation taxoids, LCC6-MDR; details: LCC6-MDR cells
[2] = system: ID8 murine ovarian cancer cell line; experiment: Cytotoxicity of third-generation taxoids, ID8; details: ID8 cells
[3] = system: CFPAC-1 human pancreatic cancer cell line; experiment: Cytotoxicity of third-generation taxoids, CFPAC-1; details: CFPAC-1 cells
[4] = system: PANC-1 human pancreatic cancer cell line; experiment: Cytotoxicity of third-generation taxoids, PANC-1; details: PANC-1 cells
[5] = system: MCF7 human breast cancer cell line; experiment: Cytotoxicity of third-generation taxoids, MCF7; details: MCF7 cells
[6] = system: LCC6-WT; experiment: Cytotoxicity of third-generation taxoids, LCC6-WT; details: LCC6-WT cells
[7] = system: NCI/ADR drug resistant (Pgp+) human ovarian cancer cell line; experiment: Cytotoxicity of third-generation taxoids, NCI/ADR; details: NCI/ADR-RES, NCI/ADR cells

| Compound | IC50 [5] [nM] | IC50 [6] [nM] | IC50 [3] [nM] | IC50 [4] [nM] | also measured |
| --- | --- | --- | --- | --- | --- |
| CC(=O)O[C@@]12CO[C@@H]1C[C@H](O)[C@@]1(C)C(=O)[C@H](OC(=O)C3CC3)C3=C(C)[C@@H](OC(=O)[C@H](O)[C@H](CC(C)C)NC(=O)OC(C)(C)C)C[C@@](O)([C@@H](OC(=O)c4cccc(OC(F)(F)F)c4)[C@H]21)C3(C)C [SB-T-111405, 2-Debenzoyl-2-(3-trifluromethoxybenzoyl)-3′-dephenyl-10-(cyclopropanecarbonyl)-3′-(2-methylpropyl)docetaxel] |  |  |  |  | IC50 ([1]; Homo sapiens, LCC6MDR): 0.98 nM; IC50 ([2]; Mus musculus): 0.28 nM; IC50 ([3]; Homo sapiens): 2.3 nM; IC50 ([4]; Homo sapiens): 0.56 nM |
| C=C(C)CC(NC(=O)OC(C)(C)C)C(O)C(=O)OC1CC2(O)C(OC(=O)c3cccc(OC(F)(F)F)c3)C3C4(OC(C)=O)COC4CC(O)C3(C)C(=O)C(OC(C)=O)C(=C1C)C2(C)C (stereo not shown) [SB-T-121205, 2-Debenzoyl-2-(3-trifluromethoxybenzoyl)-3′-dephenyl-10-acetyl-3′-(2-methyl-2-propenyl)docetaxel] | 0.23 | 0.45 | 0.4 | 0.76 | IC50 [2]: 0.23 nM |
| C=C(C)CC(NC(=O)OC(C)(C)C)C(O)C(=O)OC1CC2(O)C(OC(=O)c3cccc(OC(F)F)c3)C3C4(OC(C)=O)COC4CC(O)C3(C)C(=O)C(OC(C)=O)C(=C1C)C2(C)C (stereo not shown) [SB-T-121206, 2-Debenzoyl-2-(3-difluromethoxybenzoyl)-3′-dephenyl-10-acetyl-3′-(2-methyl-2-propenyl)docetaxel] | 0.31 | 0.28 | 0.23 | 0.49 | IC50 [2]: 0.35 nM |
| C=C(C)CC(NC(=O)OC(C)(C)C)C(O)C(=O)OC1CC2(O)C(OC(=O)c3cccc(OC(F)(F)F)c3)C3C4(OC(C)=O)COC4CC(O)C3(C)C(=O)C(OC(=O)CC)C(=C1C)C2(C)C (stereo not shown) [SB-T-121305, 2-Debenzoyl-2-(3-trifluromethoxybenzoyl)-3′-dephenyl-10-propanoyl-3′-(2-methyl-2-propenyl)-docetaxel] | 1.74 | 1.54 | 1.75 | 1.12 |  |
| C=C(C)C[C@H](NC(=O)OC(C)(C)C)[C@@H](O)C(=O)O[C@H]1C[C@@]2(O)[C@@H](OC(=O)c3cccc(OC(F)F)c3)[C@@H]3[C@]4(OC(C)=O)CO[C@@H]4C[C@H](O)[C@@]3(C)C(=O)[C@H](OC(=O)CC)C(=C1C)C2(C)C [SB-T-121306, 2-Debenzoyl-2-(3-difluromethoxybenzoyl)-3′-dephenyl-10-propanoyl-3′-(2-methyl-2-propenyl)docetaxel] | 0.54 | 0.81 | 0.17 | 0.49 |  |
| CC(=O)O[C@@]12CO[C@@H]1C[C@H](O)[C@@]1(C)C(=O)[C@H](OC(=O)C3CC3)C3=C(C)[C@@H](OC(=O)[C@H](O)[C@H](C=C(C)C)NC(=O)OC(C)(C)C)C[C@@](O)([C@@H](OC(=O)c4cccc(OC(F)(F)F)c4)[C@H]21)C3(C)C [SB-T-121405] |  | 1.01 |  |  | IC50 ([5]; Homo sapiens): 0.98 nM; IC50 ([2]; Mus musculus): 0.33 nM; IC50 ([3]; Homo sapiens): 0.36 nM; IC50 ([4]; Homo sapiens): 0.32 nM |
| C=C(C)CC(NC(=O)OC(C)(C)C)C(O)C(=O)OC1CC2(O)C(OC(=O)c3cccc(OC(F)F)c3)C3C4(OC(C)=O)COC4CC(O)C3(C)C(=O)C(OC(=O)C3CC3)C(=C1C)C2(C)C (stereo not shown) [SB-T-121406, 2-Debenzoyl-2-(3-difluromethoxybenzoyl)-3′-dephenyl-10-cyclopropanecarbonyl-3′-(2-methyl-2-propenyl)docetaxel] | 0.29 | 0.33 | 0.31 | 0.75 |  |
| C=C(C)CC(NC(=O)OC(C)(C)C)C(O)C(=O)OC1CC2(O)C(OC(=O)c3cccc(OC(F)(F)F)c3)C3C4(OC(C)=O)COC4CC(O)C3(C)C(=O)C(OC(=O)N(C)C)C(=C1C)C2(C)C (stereo not shown) [SB-T-121605, 2-Debenzoyl-2-(3-trifluromethoxybenzoyl)-3′-dephenyl-10-(N,N-dimethylcarbamoyl)-3′-(2-methyl-2-propenyl)docetaxel] |  |  | 0.56 | 0.54 | IC50 [2]: 0.25 nM |
| C=C(C)CC(NC(=O)OC(C)(C)C)C(O)C(=O)OC1CC2(O)C(OC(=O)c3cccc(OC(F)(F)F)c3)C3C4(OC(C)=O)COC4CC(O)C3(C)C(=O)C(OC(=O)OC)C(=C1C)C2(C)C (stereo not shown) [SB-T-121705, 2-Debenzoyl-2-(3-trifluromethoxybenzoyl)-3′-dephenyl-10-(methoxycarbonyl)-3′-(2-methyl-2-propenyl)docetaxel] | 0.98 | 0.59 | 0.8 | 1.17 |  |
| C=C(C)CC(NC(=O)OC(C)(C)C)C(O)C(=O)OC1CC2(O)C(OC(=O)c3cccc(OC(F)F)c3)C3C4(OC(C)=O)COC4CC(O)C3(C)C(=O)C(OC(=O)OC)C(=C1C)C2(C)C (stereo not shown) [SB-T-121706] | 0.12 | 0.46 | 0.15 | 1.06 |  |
| C=C(C)CC(NC(=O)OC(C)(C)C)C(O)C(=O)OC1CC2(O)C(OC(=O)c3cccc(OC(F)(F)F)c3)C3C4(OC(C)=O)COC4CC(O)C3(C)C(=O)C(OC)C(=C1C)C2(C)C (stereo not shown) [SB-T-123005, 2-Debenzoyl-2-(3-trifluromethoxybenzoyl)-10-methyl-3′-dephenyl-3′-(2-methyl-2-propenyl)-docetaxel] | 2.46 |  | 7.3 | 0.87 | IC50 [2]: 1.43 nM |
| C=C(C)CC(NC(=O)OC(C)(C)C)C(O)C(=O)OC1CC2(O)C(OC(=O)c3cccc(OC(F)(F)F)c3)C3C4(OC(C)=O)COC4CC(OC)C3(C)C(=O)C(OC)C(=C1C)C2(C)C (stereo not shown) [SB-T-1230105, 2-Debenzoyl-2-(3-trifluromethoxybenzoyl)-7,10-dimethyl-3′-dephenyl-3′-(2-methyl-2-propenyl)-docetaxel] |  | 0.55 |  | 0.98 | IC50 [1]: 6.98 nM |
| C=C(C)CC(NC(=O)OC(C)(C)C)C(O)C(=O)OC1CC2(O)C(OC(=O)c3cccc(OC(F)F)c3)C3C4(OC(C)=O)COC4CC(OC)C3(C)C(=O)C(OC)C(=C1C)C2(C)C (stereo not shown) [SB-T-1230106, 2-Debenzoyl-2-(3-difluromethoxybenzoyl)-7,10-dimethyl-3′-dephenyl-3′-(2-methyl-2-propenyl)-docetaxel] |  | 0.72 |  |  | IC50 [1]: 4.7 nM |
| CC(=O)O[C@H]1C(=O)[C@@]2(C)[C@H]([C@H](OC(=O)c3ccccc3)[C@]3(O)C[C@H](OC(=O)[C@H](O)[C@@H](NC(=O)c4ccccc4)c4ccccc4)C(C)=C1C3(C)C)[C@]1(OC(C)=O)CO[C@@H]1C[C@@H]2O [paclitaxel, reference compound] |  | 3.1 |  |  | IC50 ([5]; Homo sapiens): 3.13 nM; IC50 [7]: 361 nM; IC50 ([1]; Homo sapiens, LCC6MDR): 346 nM; IC50 ([2]; Mus musculus): 2.02 nM; IC50 ([3]; Homo sapiens): 68 nM; IC50 ([4]; Homo sapiens): 3.78 nM |

Source: patent US10550093B2, “Third generation taxoids and methods of using same” (The Research Foundation for the State University of New York, priority 2015, dated 2020)
